The values that follow come from PMC9661696, “Inhibition of β-Amyloid Aggregation in Alzheimer’s Disease: The Key Role of (Pro)electrophilic Warheads” (ACS Medicinal Chemistry Letters, 2022).

As a reminder, the IC50 is the concentration needed to halve the response being measured. A higher IC50 goes with lower potency.

The target of test [1] is T1, Aβ42 (β-amyloid peptide) (Homo sapiens, UniProt P05067).
T1 construct: gene APP; Aβ42
Description: inhibition of Aβ[…] self-aggregation, MS monomer quantification at […] (also ThT assay). Format: biochemical. The conditions noted are these: read-out: inhibition of Aβ42 self-aggregation / % inhibition by MS ± SD [I] = 50 μM ^b.

The target of test [2] is T1, Aβ42 (β-amyloid peptide). Description: MS and LC-MS/MS detection of covalent adduct with Aβ[…]; ThT aggregation assay (IC50). Format: biochemical.

T1 sequence (P05067 672-713): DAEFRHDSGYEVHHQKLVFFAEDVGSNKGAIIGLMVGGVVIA

`CCCSC(=O)/C=C/c1ccc(O)c(O)c1` [compound 1]: the inhibition at 50 µM at Aβ42 (β-amyloid peptide) [1] came out at 56.9%. For `CCCSC(=O)/C=C/c1cc(O)ccc1O` [compound 3, para-hydroquinone 3], half-maximal inhibition at Aβ42 (β-amyloid peptide) [2] (IC50) was put at 10.2 µM.
